# According to PMC11876601 (Molecular Systems Biology, 2025):
# Like-named read-outs stand apart in the source and are kept apart here.
# Key:
# [1] = tested on: HPDE (immortalized pancreatic duct cell line); test: Drug combination viability screen (ATPlite, 72 h); format: cell-based, human; details: HPDE; for EC50: Homo sapiens;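 for AUC: area under vehicle-normalized viability curve scaled 0 to 100 percent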;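 for Curve bottom: fraction of vehicle control viability from four-parameter log-logistic fit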
# [2] = tested on: PSN-1 cells; test: Drug combination viability screen (ATPlite, 72 h); format: cell-based, human; details: for EC50: Homo sapiens, PSN1;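 for AUC: area under vehicle-normalized viability curve scaled 0 to 100 percent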;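 for Curve bottom: fraction of vehicle control viability from four-parameter log-logistic fit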
# [3] = tested on: FGFR1; design: method as in Reinecke et al. (2023); details: FGFR1, 5 cell line mix lysate, Kinobeads ε, ref Reinecke et al. (2023), cited from earlier work
# [4] = tested on: MAP3K5; design: method as in Reinecke et al. (2023); details: MAP3K5, 5 cell line mix lysate, Kinobeads ε, ref Reinecke et al. (2023), cited from earlier work
# [5] = tested on: MAPK7; design: method as in Reinecke et al. (2023); details: MAPK7, 5 cell line mix lysate, Kinobeads ε, ref Reinecke et al. (2023), cited from earlier work
# [6] = tested on: CAMKK2; design: method as in Reinecke et al. (2023); details: CAMKK2, 5 cell line mix lysate, Kinobeads ε, ref Reinecke et al. (2023), cited from earlier work
# [7] = target: IKBKE; details: 5 cell line mix lysate, Kinobeads ε, ref Reinecke et al. (2023), cited from earlier work
# [8] = tested on: MAPK8; design: method as in Reinecke et al. (2023); details: MAPK8, 5 cell line mix lysate, Kinobeads ε, ref Reinecke et al. (2023), cited from earlier work
# [9] = tested on: NUAK2; design: method as in Reinecke et al. (2023); details: NUAK2, 5 cell line mix lysate, Kinobeads ε, ref Reinecke et al. (2023), cited from earlier work
# [10] = tested on: MAPKAPK5; design: method as in Reinecke et al. (2023); details: MAPKAPK5, 5 cell line mix lysate, Kinobeads ε, ref Reinecke et al. (2023), cited from earlier work
# [11] = tested on: RPS6KA1; design: method as in Klaeger et al. (2017); details: lysate 4 cell line mix (Colo205, K-562, MV-4-11, and SK-N-BE(2)), Kinobeads y, ref Klaeger et al. (2017); cited from earlier work
# [12] = tested on: PRKAA1; design: method as in Klaeger et al. (2017); details: lysate 4 cell line mix (Colo205, K-562, MV-4-11, and SK-N-BE(2)), Kinobeads y, ref Klaeger et al. (2017); cited from earlier work
# [13] = tested on: GAK; design: method as in Klaeger et al. (2017); details: lysate 4 cell line mix (Colo205, K-562, MV-4-11, and SK-N-BE(2)), Kinobeads y, ref Klaeger et al. (2017); cited from earlier work
# [14] = tested on: NTRK1; design: method as in Klaeger et al. (2017); details: lysate 4 cell line mix (Colo205, K-562, MV-4-11, and SK-N-BE(2)), Kinobeads y, ref Klaeger et al. (2017); cited from earlier work
compound,measurement,setting,value
"Nc1ccn([C@@H]2O[C@H](CO)[C@@H](O)C2(F)F)c(=O)n1 [GEM, Gemcitabine]",Reponse,"[1]; R1, 13.72 nM",2430360
same,Reponse,"[1]; R1, 41.15 nM",2458400
same,Reponse,"[1]; R1, […] nM",2746800
same,Reponse,"[1]; R1, 370.37 nM",2410520
same,Reponse,"[1]; R1, 1111.11 nM",2265000
same,Reponse,"[1]; R1, 3333.33 nM",1887440
same,Reponse,"[1]; R1, 10000 nM",1259640
same,Reponse,"[1]; R2, 13.72 nM",3059000
same,Reponse,"[1]; R2, 41.15 nM",2844720
same,Reponse,"[1]; R2, […] nM",2708840
same,Reponse,"[1]; R2, 370.37 nM",2516400
same,Reponse,"[1]; R2, 1111.11 nM",2343080
same,Reponse,"[1]; R2, 3333.33 nM",1957840
same,Reponse,"[1]; R2, 10000 nM",1504480
same,Curve bottom,[1]; GEM curve fit,0.27
same,Curve effect size,[1]; GEM curve fit,0.73
same,Curve slope,[1]; GEM curve fit,1.67
same,Curve top,[1]; GEM curve fit,1.00
same,AUC,"[1]; GEM curve fit, in %",48.78
same,EC50,[1]; read-out: EC50,4.34 nM
same,EC50,[1]; read-out: pEC50 (converted),4.37 nM
same,EC50,[2]; read-out: EC50,3.44 nM
same,EC50,[2]; read-out: pEC50 (converted),3.47 nM
same,Reponse,"[2]; PSN-1, R1, 13.72 nM",1225440
same,Reponse,"[2]; PSN-1, R1, 41.15 nM",969400
same,Reponse,"[2]; PSN-1, R1, […] nM",806840
same,Reponse,"[2]; PSN-1, R1, 370.37 nM",818640
same,Reponse,"[2]; PSN-1, R1, 1111.11 nM",786440
same,Reponse,"[2]; PSN-1, R1, 3333.33 nM",785720
same,Reponse,"[2]; PSN-1, R1, 10000 nM",723120
same,Reponse,"[2]; PSN-1, replicate R2, dose 13.72 nM, raw signal",1542400
same,Reponse,"[2]; PSN-1, replicate R2, dose 41.15 nM, raw signal",1210080
same,Reponse,"[2]; PSN-1, replicate R2, dose 123.46 nM, raw signal",1089000
same,Reponse,"[2]; PSN-1, replicate R2, dose 370.37 nM, raw signal",1103640
same,Reponse,"[2]; PSN-1, replicate R2, dose 1111.11 nM, raw signal",1004960
same,Reponse,"[2]; PSN-1, replicate R2, dose 3333.33 nM, raw signal",1071400
same,Reponse,"[2]; PSN-1, replicate R2, dose 10000 nM, raw signal",1052080
same,AUC,"[2]; PSN-1, GEM curve fit",35.4%
same,Curve bottom,"[2]; PSN-1, GEM curve fit",0.11
same,Curve effect size,"[2]; PSN-1, GEM curve fit",0.89
same,Curve slope,"[2]; PSN-1, GEM curve fit",2.16
same,Curve top,"[2]; PSN-1, GEM curve fit",1.03
COc1cc(N2CCC(N3CCN(C)CC3)CC2)ccc1Nc1ncc(Cl)c(Nc2ccccc2P(C)(C)=O)n1 [Brigatinib],EC50,[3],419 nM
same,pKDapp,[3],6.51
same,Kd,[3]; read-out: KDapp,308 nM
same,EC50,[4],970 nM
same,pKDapp,[4],6.11
same,Kd,[4]; read-out: KDapp,776 nM
same,EC50,[5],1060 nM
same,pKDapp,[5],6.08
same,Kd,[5]; read-out: KDapp,828 nM
same,EC50,[6],60.9 nM
same,pKDapp,[6],7.39
same,Kd,[6]; read-out: KDapp,40.4 nM
same,Kd,[7]; read-out: KDapp,2520 nM
same,EC50,[7],4060 nM
same,pKDapp,[7],5.60
same,EC50,[8],2200 nM
same,pKDapp,[8],5.85
same,Kd,[8]; read-out: KDapp,1420 nM
same,EC50,[9],88.5 nM
same,pKDapp,[9],7.17
same,Kd,[9]; read-out: KDapp,68.3 nM
same,EC50,[10],62.7 nM
same,pKDapp,[10],7.23
same,Kd,[10]; read-out: KDapp,58.3 nM
C[C@]12O[C@H](C[C@]1(O)CO)n1c3ccccc3c3c4c(c5c6ccccc6n2c5c31)CNC4=O [Lestaurtinib],EC50,[11],3290 nM
same,EC50,[12],1320 nM
same,EC50,[14],795 nM
